In PubChem BioAssay (NCI):
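Test compounds were applied to cells in 96-well plates for 48 hours at 5 doses. The concentration for full growth arrest is given as TGI.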

Legend:
Test in all cases: NCI anticancer screen, dose series, 48 h
CAKI-1 renal = tested on: CAKI-1 renal
CCRF-CEM leukemia = tested on: CCRF-CEM leukemia
HCC-2998 colon = tested on: HCC-2998 colon
HL-60(TB) leukemia = tested on: HL-60(TB) leukemia
HOP-62 NSCLC = tested on: HOP-62 NSCLC
HS 578T breast = tested on: HS 578T breast
HT29 colon = tested on: HT29 colon
KM12 colon = tested on: KM12 colon
NCI-H23 lung = tested on: NCI-H23 lung
NCI-H522 lung = tested on: NCI-H522 lung

With `C=C(C)[C@@]1(O[Si](C)(C)C)CCCC[C@@H]1CC(Sc1ccccc1)Sc1ccccc1` the TGI (CAKI-1 renal) was 25.8 µM, the TGI (CCRF-CEM leukemia) was 36.2 µM and the TGI (HCC-2998 colon) was 29.8 µM. It also gave a TGI (HL-60(TB) leukemia) of 40.8 µM, a TGI (HOP-62 NSCLC) of 27.5 µM and a TGI (HS 578T breast) of 29.7 µM. It also gave a TGI (HT29 colon) of 34.8 µM, a TGI (KM12 colon) of 23.8 µM and a TGI (NCI-H23 lung) of 30.9 µM. It also gave a TGI (NCI-H522 lung) of 20.4 µM.
Compound `CC1=C[C@@H](C)C[C@]2(C)CC[C@H](O2)[C@]23CC[C@](C(=O)O)(C[C@H](O2)[C@@H]2O[C@@](C)(CC2=O)[C@@H](O)[C@H]2CC[C@@]4(CCC[C@@H](O4)[C@H](C)C(=O)O[C@H]4C[C@H]([C@]5(O)OCC[C@H](C)[C@@H]5O)O[C@H]4C=C1)O2)O3` has a TGI (CAKI-1 renal) of over 10 µM, a TGI (CCRF-CEM leukemia) of over 10 µM and a TGI (HCC-2998 colon) of over 10 µM. It also gave a TGI (HL-60(TB) leukemia) of over 10 µM, a TGI (HOP-62 NSCLC) of over 10 µM and a TGI (HS 578T breast) of over 5.94 µM. It also gave a TGI (HT29 colon) of over 10 µM, a TGI (KM12 colon) of over 10 µM and a TGI (NCI-H23 lung) of over 10 µM. For the same compound, the TGI (NCI-H522 lung) was over 10 µM.
In the case of `O/C(=C\c1nc2ccccc2nc1NC12CC3CC(CC(C3)C1)C2)c1ccc(Br)cc1`, the TGI (CAKI-1 renal) is reported as over 10 µM, the TGI (CCRF-CEM leukemia) is reported as over 10 µM and the TGI (HCC-2998 colon) is reported as over 10 µM. The TGI (HL-60(TB) leukemia) was over 10 µM, the TGI (HOP-62 NSCLC) was over 10 µM and the TGI (HS 578T breast) was over 10 µM. The TGI (HT29 colon) was over 10 µM, the TGI (KM12 colon) was over 10 µM and the TGI (NCI-H23 lung) was over 10 µM. For the same compound, the TGI (NCI-H522 lung) was over 10 µM.
`COc1ccc(N=C2C(=S)N(c3ccc(OC)cc3)/C(=N/S(=O)(=O)c3ccccc3)N2c2ccccc2)cc1` gave a TGI (CAKI-1 renal) of 28.2 µM, a TGI (CCRF-CEM leukemia) of over 100 µM and a TGI (HCC-2998 colon) of over 57.9 µM. It also gave a TGI (HL-60(TB) leukemia) of over 100 µM, a TGI (HOP-62 NSCLC) of over 57 µM and a TGI (HS 578T breast) of over 66.1 µM. For the same compound, the TGI (HT29 colon) was over 64.4 µM, the TGI (KM12 colon) was 34.6 µM and the TGI (NCI-H23 lung) was 29 µM. The TGI (NCI-H522 lung) was 4.24 µM.
For `COc1ccc(N=Nc2c3c(c(O)c4ccccc24)CCC(C)(C)O3)cc1`, the TGI (CAKI-1 renal) was 72.3 µM, the TGI (CCRF-CEM leukemia) was 41.7 µM and the TGI (HCC-2998 colon) was 24.5 µM. For the same compound, the TGI (HL-60(TB) leukemia) was 50.1 µM, the TGI (HOP-62 NSCLC) was 52.9 µM and the TGI (HS 578T breast) was 66.7 µM. The TGI (HT29 colon) was 27.6 µM, the TGI (KM12 colon) was 29.5 µM and the TGI (NCI-H23 lung) was 34.4 µM. It also gave a TGI (NCI-H522 lung) of 33.5 µM.
`COc1cc([C@@H]2c3cc4c(cc3[C@@H](c3c(O)cc(O)c5c3O[C@H](c3ccc(O)c(O)c3)[C@@H](O)C5)[C@H]3COC(=O)[C@H]23)OCO4)cc(OC)c1O` showed a TGI (CAKI-1 renal) of over 100 µM, a TGI (CCRF-CEM leukemia) of over 100 µM and a TGI (HCC-2998 colon) of over 100 µM. For the same compound, the TGI (HL-60(TB) leukemia) was over 100 µM, the TGI (HOP-62 NSCLC) was over 100 µM and the TGI (HS 578T breast) was over 100 µM. For the same compound, the TGI (HT29 colon) was over 100 µM, the TGI (KM12 colon) was over 100 µM and the TGI (NCI-H23 lung) was over 100 µM. For the same compound, the TGI (NCI-H522 lung) was over 100 µM.
In the case of `O=C(c1ccccc1)N1C(=S)N=C(Nc2ccccc2)C1=Nc1ccccc1`, the TGI (CAKI-1 renal) is reported as over 100 µM, the TGI (CCRF-CEM leukemia) is reported as over 100 µM and the TGI (HCC-2998 colon) is reported as over 100 µM. The TGI (HL-60(TB) leukemia) was over 100 µM, the TGI (HOP-62 NSCLC) was over 100 µM and the TGI (HS 578T breast) was over 100 µM. The TGI (HT29 colon) was over 100 µM, the TGI (KM12 colon) was over 100 µM and the TGI (NCI-H23 lung) was over 100 µM. For the same compound, the TGI (NCI-H522 lung) was over 100 µM.
In the case of `COC(=O)C1=C(C)NC(C)=C([N+](=O)[O-])C1c1cccc(N=O)c1` (stereo not given), the TGI (CAKI-1 renal) is reported as 20.6 µM, the TGI (CCRF-CEM leukemia) is reported as over 100 µM and the TGI (HCC-2998 colon) is reported as 34.8 µM. It also gave a TGI (HL-60(TB) leukemia) of over 100 µM, a TGI (HOP-62 NSCLC) of 34.5 µM and a TGI (HS 578T breast) of 39.1 µM. The TGI (HT29 colon) was 33.1 µM, the TGI (KM12 colon) was 26.4 µM and the TGI (NCI-H23 lung) was 33.5 µM. For the same compound, the TGI (NCI-H522 lung) was 5.34 µM.
`CC(C)(C)c1ccc(OCC(=O)O)c(Cl)c1` showed a TGI (CAKI-1 renal) of over 100 µM, a TGI (CCRF-CEM leukemia) of over 100 µM and a TGI (HCC-2998 colon) of over 100 µM. It also gave a TGI (HL-60(TB) leukemia) of over 100 µM, a TGI (HOP-62 NSCLC) of over 100 µM and a TGI (HS 578T breast) of over 100 µM. For the same compound, the TGI (HT29 colon) was over 100 µM, the TGI (KM12 colon) was over 100 µM and the TGI (NCI-H23 lung) was over 100 µM. For the same compound, the TGI (NCI-H522 lung) was over 100 µM.
